Consider 8 compounds from PMC9967275, “Screening the Pathogen Box to Discover and Characterize New Cruzain and TbrCatL Inhibitors” (Pathogens, 2023).

“Also recorded” adds a separate entry of the source. Where two headings read alike, the source gives them in different places.

One series addresses T1, TbrCatL (Trypanosoma brucei rhodesiense, UniProt Q95PM0).
T1 construct: Conor Caffrey (University of California San Diego)
The series is described as follows: TbrCatL enzymatic inhibition assay (cleavage of fluorogenic substrate Z-FR-AMC). It is filed as biochemical. The note with it: for TbrCatL Inhibition 0’: 0’ (no pre-incubation); for TbrCatL Inhibition 0’ / TbrCatL Inhibition 10’: sheet Screening results; for TbrCatL Inhibition 10’: 10’ (pre-incubation). Summed up: (§1)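 Recombinant enzymes assayed by Z-Phe-Arg-AMC cleavage at 25 °C, fluorescence 340/440 nm over 5–7 min, with 10 min or no enzyme–compound preincubation.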

Series [1] has as its target T2, cruzain (Trypanosoma cruzi, UniProt P25779). The series is described as follows: Mechanism of inhibition against cruzain (Michaelis-Menten, Lineweaver-Burk). It is filed as biochemical. Further details: Cruzain is the truncated, recombinant-expressed cruzipain 1; Brian Shoichet (University of California San Francisco). The method, then: Non-linear regression to Michaelis-Menten models and linear regression for the Lineweaver-Burk plot were performed. Ki was estimated by both methods. The effect of the inhibitor concentration on the Km app was evaluated using the General Linear F-test.

The target in series [2] is T2, cruzain. Briefly: Aggregation counter-assays: cruzain inhibition at varying Triton X-100 and after pre-incubation with BSA. It is filed as biochemical. Set-up: Cruzain is the truncated, recombinant-expressed cruzipain 1; Brian Shoichet (University of California San Francisco). The note with it: for % Cruzain Inhibition (Mean ± SEM) 0.001% Triton + BSA 1 mg/mL / % Cruzain Inhibition (Mean ± SEM) 0.001% Triton X-100 / % Cruzain Inhibition (Mean ± SEM) 0.01% Triton X-100 / % Cruzain Inhibition (Mean ± SEM) 0.1% Triton X-100: compound µM: MMV687246 12.5, MMV687812 3.125, MMV688179 1.563, MMV688362 3.125, MMV688466 6.25, MMV690028 25. On the procedure: To assess the effects of the Triton X-100 concentration on cruzain inhibition, assays were performed using 0.001%, 0.01%, and 0.1% Triton X-100. To evaluate the impact of pre-incubation with bovine serum albumin (BSA), 50 µL of a solution of the compound in the assay buffer containing 0.001% of Triton X-100 was incubated with 4 mg/mL of BSA (Sigma-Aldrich) for 10′ in a 96-well plate. Next, 50 µL of a solution containing circa 2 nM of cruzain in the same buffer was added to each well and incubated for another 10′. Finally, 100 µL of a solution of 5 µM Z-FR-AMC in the same buffer was added to each well and the fluorescence was immediately read. The final compound concentration varies and was selected to be near the compound IC50.
To investigate if inhibition was due to colloidal aggregation, a common cause of unspecific enzyme inhibition in in vitro assays, we employed two well-established experiments: the comparison of percentages of inhibition at varying Triton X-100 concentrations and the effect of compound pre-incubation with BSA on the percentage of inhibition. […] Pre-incubating a compound that aggregates with BSA saturates the protein-binding capacity of the aggregate.

In series [3] the target is T2, cruzain. The series is described as follows: biochemical. The note with it: for Cruzain Inhibition 0’: 0’ (no pre-incubation); for Cruzain Inhibition 0’ / Cruzain Inhibition 10’: sheet Screening results; for Cruzain Inhibition 10’: 10’ (pre-incubation). Summed up: as §1
Setting [4] is: IC50 (µM ± SEM %) TbrCatL 0′, no pre-incubation.
[5] abbreviates: IC50 (µM ± SEM %) TbrCatL 10′ inc, 10′ pre-incubation.
The mark [6] stands for this setting: read-out: Inhibition at 5 µM (Mean ± SEM %) TbrCatL 0′.
[7] abbreviates: read-out: Inhibition at 5 µM (Mean ± SEM %) TbrCatL 10′ inc.
The mark [8] stands for this setting: read-out: Inhibition at 100 µM (Mean ± SEM %) TbrCatL 0′.
Setting [9] is: read-out: Inhibition at 100 µM (Mean ± SEM %) TbrCatL 10′ inc.
Setting [10] is: read-out: TbrCatL 0’ Inhibition.
The mark [11] stands for this setting: read-out: TbrCatL 10’ Inhibition.
[12] abbreviates: IC50 (µM ± SEM %) Cruzain 0′, no pre-incubation.
Where [13] appears, read: IC50 (µM ± SEM %) Cruzain 10′ inc, 10′ pre-incubation.
Setting [14] is: read-out: Cruzain 0’ Inhibition, 0’ (pre-incubation time), sheet "Screening results".
The mark [15] stands for this setting: read-out: Cruzain 10’ Inhibition, 10’ (pre-incubation time), sheet "Screening results".
[16] abbreviates: read-out: Inhibition at 5 µM (Mean ± SEM %) Cruzain 0′, 5 µM, no pre-incubation, initial screening.
The mark [17] stands for this setting: read-out: Inhibition at 5 µM (Mean ± SEM %) Cruzain 10′ inc, 5 µM, 10′ pre-incubation, initial screening.
Setting [18] is: read-out: Inhibition at 100 µM (Mean ± SEM %) Cruzain 0′, 100 µM, no pre-incubation, solid samples.
Where [19] appears, read: read-out: Inhibition at 100 µM (Mean ± SEM %) Cruzain 10′ inc, 100 µM, 10′ pre-incubation, solid samples.
Where [20] appears, read: read-out: Inhibition of cruzain or TbrCatL (either enzyme) in the initial screening, 5 µM, either cruzain or TbrCatL, with or without pre-incubation.
The mark [21] stands for this setting: 0’ (pre-incubation time), sheet "Screening results".
Where [22] appears, read: 10’ (pre-incubation time), sheet "Screening results".

T1 sequence (Q95PM0 entry or part of it): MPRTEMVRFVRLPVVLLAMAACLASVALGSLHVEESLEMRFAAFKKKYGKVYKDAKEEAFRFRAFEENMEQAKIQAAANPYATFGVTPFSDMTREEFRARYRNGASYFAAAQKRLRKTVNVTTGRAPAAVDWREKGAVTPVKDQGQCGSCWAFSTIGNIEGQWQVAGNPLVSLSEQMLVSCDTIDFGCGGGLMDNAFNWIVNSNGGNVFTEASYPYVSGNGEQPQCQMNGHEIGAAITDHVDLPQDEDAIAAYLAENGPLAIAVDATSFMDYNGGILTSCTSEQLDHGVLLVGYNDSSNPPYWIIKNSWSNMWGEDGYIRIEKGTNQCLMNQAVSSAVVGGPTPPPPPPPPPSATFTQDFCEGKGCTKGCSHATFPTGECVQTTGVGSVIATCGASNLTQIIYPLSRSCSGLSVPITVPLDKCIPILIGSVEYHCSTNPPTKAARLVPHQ
T2 sequence (P25779 123-337 limits assumed): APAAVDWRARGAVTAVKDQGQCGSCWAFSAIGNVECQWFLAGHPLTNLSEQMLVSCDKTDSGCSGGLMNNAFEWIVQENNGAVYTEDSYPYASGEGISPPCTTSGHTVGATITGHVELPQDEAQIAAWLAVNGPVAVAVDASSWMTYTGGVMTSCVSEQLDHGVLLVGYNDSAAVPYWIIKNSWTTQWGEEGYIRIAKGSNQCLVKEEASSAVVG

For the compound `CN1CCN(S(=O)(=O)c2ccc(-c3ccc4c(Nc5ccc6nn[nH]c6c5)ccnc4c3)cc2)CC1` [MMV687246], the IC50 (usually the concentration needed to halve the response being measured) on TbrCatL (setting [4]) turned out to be 9 ± 3 µM; at TbrCatL (setting [5]), 4.2 ± 0.6 µM; on cruzain [3] (setting [12]), 14 ± 5 µM; at cruzain [3] (setting [13]) it was 10 ± 2 µM. Moreover, the inhibition (in general, how much of the control response was suppressed) at 5 µM on TbrCatL (setting [6]) was determined as 29 ± 1%; at TbrCatL (setting [7]), 49 ± 4%; on TbrCatL (setting [10]), 29%; at TbrCatL (setting [11]), 49%; on cruzain [3] (setting [14]) it was 24%; on cruzain [3] (setting [15]) it was 39%. Also, the inhibition at 5 µM at cruzain [3] (setting [16]) is 24 ± 3%; on cruzain [3] (setting [17]) it was 39 ± 3%; on cruzain [3] (setting [20]), at least 40%. In addition, the inhibition at 100 µM at TbrCatL (setting [8]) worked out at 92 ± 6%; at TbrCatL (setting [9]), 99 ± 1%; at cruzain [3] (setting [18]), 72 ± 1%; at cruzain [3] (setting [19]) it was 92 ± 3%. In addition, on cruzain [1], the Ki – broadly, the equilibrium dissociation constant of an inhibitor or competing ligand from its target – turned out to be 57 ± 6 µM. Further, on cruzain [1], the “Mechanism of inhibition of cruzain” value is reported as “mixed inhibitor; also recorded: mixed inhibition”. Also, the “α value (mixed inhibition)” value on cruzain [1] (mixed model) is given as 0.7 ± 0.2. For the same compound, the “% Cruzain Inhibition (Mean ± SEM) 0.001% Triton + BSA 1 mg/mL” value at cruzain [2] came to 45 ± 1%. Also, on cruzain [2], the “% Cruzain Inhibition (Mean ± SEM) 0.001% Triton X-100” value is recorded as 62 ± 3%. Moreover, the “% Cruzain Inhibition (Mean ± SEM) 0.01% Triton X-100” value at cruzain [2] amounted to 51 ± 0%. The “% Cruzain Inhibition (Mean ± SEM) 0.1% Triton X-100” value on cruzain [2] is on record as 32 ± 2%. Moreover, the “Change of IC50 with vs without 10′ pre-incubation” value on cruzain [3] (against cruzain, 10 min) is given as “up to 2 fold”.
Turning to `COc1ccc(C2=NN(C3CCCCCC3)C(=O)C2(C)C)cc1OCCCCOc1ccc(-c2nn[nH]n2)cc1` [MMV690028], the IC50 at TbrCatL (setting [4]) was 18 ± 7 µM; at TbrCatL (setting [5]), 27 ± 3 µM; on cruzain [3] (setting [12]), 10 ± 3 µM; at cruzain [3] (setting [13]), 13 ± 5 µM. The inhibition at 5 µM is 49 ± 4% at TbrCatL (setting [6]); 23 ± 4% on TbrCatL (setting [7]); 34 ± 8% at cruzain [3] (setting [16]); 27 ± 4% at cruzain [3] (setting [17]); at least 40% at cruzain [3] (setting [20]). Moreover, the inhibition at 100 µM on TbrCatL (setting [8]) was 100%; at TbrCatL (setting [9]), 88 ± 3%; on cruzain [3] (setting [18]), 100%; at cruzain [3] (setting [19]), 100%. In addition, the “% Cruzain Inhibition (Mean ± SEM) 0.001% Triton + BSA 1 mg/mL” value at cruzain [2] is on record as 91 ± 7%. In addition, the “% Cruzain Inhibition (Mean ± SEM) 0.001% Triton X-100” value on cruzain [2] is on record as 69 ± 14%.
`CN1CCN(CCCOc2ncc(Nc3ncc(-c4ccc(C(F)(F)F)c(F)c4)nc3C(N)=O)cn2)CC1` [MMV687812]: the IC50 on TbrCatL (setting [4]) was 3.45 ± 0.05 µM; at TbrCatL (setting [5]), 3.6 ± 0.3 µM; at cruzain [3] (setting [12]) it was 2.2 ± 0.3 µM; on cruzain [3] (setting [13]), 2.6 ± 0.03 µM; on cruzain [3] (IC50 against cruzain and TbrCatL (summary), cruzain and TbrCatL, with or without pre-incubation) it was 2 to 4 µM. The inhibition at 5 µM turned out to be 11 ± 3% at TbrCatL (setting [6]); 5 ± 1% on TbrCatL (setting [7]); 11% at TbrCatL (setting [10]); 5.3% at TbrCatL (setting [11]); 42% at cruzain [3] (setting [14]); 27% on cruzain [3] (setting [15]). Moreover, the results for the inhibition at 5 µM on cruzain [3] (setting [16]), at cruzain [3] (setting [17]) and on cruzain [3] (setting [20]) were 41 ± 2%, 27% and at least 40%, respectively. For the same compound, the inhibition at 100 µM on TbrCatL (setting [8]) was 90 ± 2%; at TbrCatL (setting [9]), 93%; on cruzain [3] (setting [18]), 100%; on cruzain [3] (setting [19]) it was 95%. Moreover, the “% Cruzain Inhibition (Mean ± SEM) 0.001% Triton + BSA 1 mg/mL” value at cruzain [2] is reported as 85 ± 1%. Also, the “% Cruzain Inhibition (Mean ± SEM) 0.001% Triton X-100” value on cruzain [2] is given as 92 ± 0%. The “% Cruzain Inhibition (Mean ± SEM) 0.1% Triton X-100” value on cruzain [2] is recorded as 54 ± 1%. Further, on cruzain [2] (near the IC50), the “Effect of a 10-fold increase in the concentration of Triton X-100 on cruzain inhibition” value is “some reduction in the inhibition”. For the same compound, at cruzain [2] (near the IC50), the “Effect of pre-incubation of the compound with BSA on cruzain inhibition” value is on record as “did not reduce the inhibition of cruzain”.
For `Cn1ccnc1CNCCS(=O)(=O)c1cccc(Nc2ccc(-c3cccc(F)c3)cn2)c1` [MMV688466], the IC50 at TbrCatL (setting [4]) is 4 ± 1 µM; at TbrCatL (setting [5]), 11 ± 4 µM; at cruzain [3] (setting [12]), 9 ± 1 µM; at cruzain [3] (setting [13]), 25 ± 6 µM. Further, the inhibition at 5 µM on TbrCatL (setting [6]) was 29 ± 2%; at TbrCatL (setting [7]), 54 ± 8%; at cruzain [3] (setting [16]), 41 ± 2%; on cruzain [3] (setting [17]), 49 ± 5%; at cruzain [3] (setting [20]), at least 40%. Besides, the inhibition at 100 µM at TbrCatL (setting [8]) is 96 ± 3%; on TbrCatL (setting [9]), 100%; on cruzain [3] (setting [18]) it was 58 ± 27%; at cruzain [3] (setting [19]) it was 98 ± 1%. Also, the “% Cruzain Inhibition (Mean ± SEM) 0.001% Triton + BSA 1 mg/mL” value on cruzain [2] was found to be 96 ± 3%. Moreover, the “% Cruzain Inhibition (Mean ± SEM) 0.001% Triton X-100” value on cruzain [2] stood at 83 ± 3%. Further, the “% Cruzain Inhibition (Mean ± SEM) 0.01% Triton X-100” value at cruzain [2] was found to be 32 ± 5%. In addition, the “% Cruzain Inhibition (Mean ± SEM) 0.1% Triton X-100” value at cruzain [2] is listed as 82 ± 11%.
`COc1cc2ncnc(NC3CCN(Cc4ccccc4)CC3)c2cc1OC` [MMV006741]: at TbrCatL, the “TbrCatL Inhibition 0’” value was 15% and the “TbrCatL Inhibition 10’” value came out at 5.4%. Moreover, on cruzain [3], the “Cruzain Inhibition 0’” value stood at 8% and the “Cruzain Inhibition 10’” value amounted to 10%.
`Cc1nc(-c2cccc(NCc3ccccc3)c2)[nH]c1C` [MMV023227]: on TbrCatL (setting [21]), the “TbrCatL 0’ Inhibition” value was -7%. The “TbrCatL 10’ Inhibition” value at TbrCatL (setting [22]) was 22%. Further, on cruzain [3] (setting [21]), the “Cruzain 0’ Inhibition” value was determined as 2%. The “Cruzain 10’ Inhibition” value on cruzain [3] (setting [22]) was 15%.
Regarding `Cc1cc2ccccc2n1CC(=O)N1CC(C(=O)N2CCCCC2)Oc2ccccc21` (stereo not drawn) [MMV020520], on TbrCatL, the “TbrCatL Inhibition 0’” value worked out at 1.6% and the “TbrCatL Inhibition 10’” value is reported as 10%. Also, on cruzain [3], the “Cruzain Inhibition 0’” value stood at 4.7% and the “Cruzain Inhibition 10’” value came out at 3.4%.
Consider `CC(=O)NCC1CN(c2ccc(-c3ccc(CO)cc3)c(F)c2)C(=O)O1` (stereo not drawn) [MMV688508], for which, on TbrCatL, the “TbrCatL Inhibition 0’” value was -0.7% and the “TbrCatL Inhibition 10’” value is given as -5%. Further, on cruzain [3], the “Cruzain Inhibition 0’” value was -0.1% and the “Cruzain Inhibition 10’” value is given as -2%.
